As a reminder, the inhibition is the change of the read-out against control, counted positive when it falls. High values mean a strong effect, low ones a weak effect.

Four compounds from US20210393623A1 (Jacobio Pharmaceuticals Co., Ltd., priority 2018, published 2021) can be followed below.

In this assay the target is T1, SHP2 (Homo sapiens, UniProt Q06124).
T1 sequence (Q06124 1-593): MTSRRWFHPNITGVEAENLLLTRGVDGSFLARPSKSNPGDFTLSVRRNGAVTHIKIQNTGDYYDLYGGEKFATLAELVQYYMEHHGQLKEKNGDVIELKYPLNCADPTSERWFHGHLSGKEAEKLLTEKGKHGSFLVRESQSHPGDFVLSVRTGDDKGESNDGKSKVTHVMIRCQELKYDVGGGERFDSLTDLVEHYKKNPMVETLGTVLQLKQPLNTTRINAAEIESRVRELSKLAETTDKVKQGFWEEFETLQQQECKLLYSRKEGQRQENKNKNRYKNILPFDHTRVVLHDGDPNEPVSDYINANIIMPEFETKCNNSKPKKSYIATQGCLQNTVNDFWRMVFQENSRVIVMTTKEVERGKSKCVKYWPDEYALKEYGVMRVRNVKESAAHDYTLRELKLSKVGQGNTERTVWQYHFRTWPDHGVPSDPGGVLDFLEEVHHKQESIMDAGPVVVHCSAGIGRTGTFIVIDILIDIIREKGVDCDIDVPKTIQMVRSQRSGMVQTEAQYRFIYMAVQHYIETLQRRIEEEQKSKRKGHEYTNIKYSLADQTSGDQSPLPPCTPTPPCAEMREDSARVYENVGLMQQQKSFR
In words: Phosphatase Assay (Single Dose Inhibition). In kind it is biochemical. As to conditions: compound at 0.02 μM (20nM); DiFMUP substrate 12 μM; SHP2 0.5 nM activated with dPEG8 peptide; DMSO control set to 100%; triplicate. The procedure:
Phosphatase Assay (Single Dose Inhibition) Assay Protocol: For single dose inhibition assays using 6,8-difluoro-4-methylumbelliferyl phosphate (DiFMUP) as a substrate, SHP2 samples (diluted to 0.5 nM in reaction buffer) were incubated with dPEG8 peptide for 30 min in reaction buffer[60 mM 3,3-dimethyl glutarate (pH7.2), 75 mM NaCl, 75 mM KCl, and 1 mM EDTA, 0.05% Tween 20, 2mM dithiothreitol (DTT) ] to active the PTP. DMSO [0.5% (v/v)] or compounds (20nM) were added to the mixture and incubated for 30 min at room temperature. Reactions were initiated by the addition of DiFMUP (12 μM; total reaction volume of 100 μL), and the fluorescence (excitation at 340 nm, emission at 450 nm) of the resulting solutions was measured on a 2104-0020 EnVision Xcite Multilabel Reader (PerkinElmer) after 30min. The experiment is carried out in triplicate. The value for the control sample (DMSO) was set to 100%, and the values for the compound-treated samples were expressed as activity relative to the control sample.
With `Cc1nc(N2CCC3(CC2)Cc2ncccc2[C@H]3N)c(Br)nc1-c1cccc(Cl)c1Cl` [Example 25, (S)-1′-(3-bromo-5-(2,3-dichlorophenyl)-6-methylpyrazin-2-yl)-5,7-dihydrospiro[cyclopenta[b]pyridine-6,4′-piperidin]-5-amine], testing at 0.02 µM gave an inhibition of 78%. In the case of `Cc1nc(N2CCC3(CC2)Cc2ccccc2[C@H]3N)c(C(=O)O)nc1-c1cccc(Cl)c1Cl` [Example 3, (S)-3-(1-amino-1,3-dihydrospiro[indene-2,4′-piperidin]-1′-yl)-6-(2,3-dichlorophenyl)-5-methylpyrazine-2-carboxylic acid] it was 81%; in that of `CCOC(=O)c1nc(Sc2ccnc(N)c2Cl)c(C)nc1N1CCC2(CC1)Cc1ccccc1[C@H]2N` [Example 5, ethyl (S)-3-(1-amino-1,3-dihydrospiro[indene-2,4′-piperidin]-1′-yl)-6-((2-amino-3-chloropyridin-4-yl)thio)-5-methylpyrazine-2-carboxylate], 84%. In the case of `Cc1nc(N2CCC3(CC2)Cc2ccccc2[C@H]3N)c(C(N)=O)nc1-c1cccc(Cl)c1Cl` [Example 4, (S)-3-(1-amino-1,3-dihydrospiro[indene-2,4′-piperidin]-1′-yl)-6-(2,3-dichlorophenyl)-5-methylpyrazine-2-carboxamide] it was 89%.
